One series has as its target T1, Muscarinic acetylcholine receptor M1 (Homo sapiens) (UniProt P11229).
T1 sequence (whole entry): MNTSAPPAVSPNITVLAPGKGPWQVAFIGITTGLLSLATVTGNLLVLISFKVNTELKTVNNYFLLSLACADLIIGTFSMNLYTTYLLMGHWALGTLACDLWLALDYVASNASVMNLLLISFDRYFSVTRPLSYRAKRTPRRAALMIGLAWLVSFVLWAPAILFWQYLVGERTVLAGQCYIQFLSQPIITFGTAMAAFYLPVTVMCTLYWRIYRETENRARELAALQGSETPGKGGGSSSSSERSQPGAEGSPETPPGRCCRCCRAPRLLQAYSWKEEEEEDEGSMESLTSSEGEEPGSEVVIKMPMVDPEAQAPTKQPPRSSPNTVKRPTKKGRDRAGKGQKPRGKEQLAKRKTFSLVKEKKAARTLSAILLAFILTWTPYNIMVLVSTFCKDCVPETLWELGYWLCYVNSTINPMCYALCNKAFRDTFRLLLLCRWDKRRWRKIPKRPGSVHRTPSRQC
The series can be described thus: Allosteric modulation of human muscarinic M1 receptor expressed in CHO cells assessed as effect on acetylcholine-induced calcium mobilization by FLIPR assay. Format: functional, cell-based.
Turning to `O=C(O)c1cn(Cc2ccc(C(F)(F)F)cc2)c2c(F)ccc(F)c2c1=O`, the IP came out at 760 nM.

In the case of `O=C(O)c1cn(Cc2ccccc2C(F)(F)F)c2c(F)ccc(F)c2c1=O`, the IP was 2300 nM.

For `O=C(O)c1cn(Cc2ccccc2)c2c(F)cccc2c1=O`, the IP stood at 4000 nM. The same measure, in the same setting: for `O=C(O)c1cn(Cc2ccc(-c3cccc(CO)n3)cc2)c2c(F)cccc2c1=O` the value was 250 nM; for `O=C(O)c1cn(Cc2ccc(C3CC3)cc2)c2cccc(F)c2c1=O`, 830 nM; for `O=C(O)c1cn(Cc2ccc(-c3cn[nH]c3)cc2F)c2ccccc2c1=O`, 56 nM. For `O=C(O)c1cn(Cc2ccc(-c3ccccc3)cc2Cl)c2ccccc2c1=O`, the IP worked out at 120 nM. On to `O=C(O)c1cn(Cc2ccc(-c3cccc4[nH]ccc34)cc2)c2c(F)cccc2c1=O`, for which the IP was determined as 76 nM. In the case of `CN(C)c1cccc(-c2ccc(Cn3cc(C(=O)O)c(=O)c4cccc(F)c43)cc2)c1`, the IP worked out at 94 nM. The same measure, in the same setting: in the case of `O=C(O)c1cn(Cc2ccccc2)c2ccccc2c1=O` it was 1700 nM; in that of `O=C(O)c1cn(Cc2cccc(OC(F)(F)F)c2)c2c(F)ccc(F)c2c1=O`, 3200 nM; in that of `O=C(O)c1cn(Cc2ccc(-c3cn[nH]c3)cc2F)c2cccc(F)c2c1=O`, 41 nM. Still for that read-out and setting: in the case of `O=C(O)c1cn(Cc2cccc(C(F)(F)F)c2)c2c(F)cccc2c1=O` it was 2700 nM; in that of `CS(=O)(=O)c1ccc(Cn2cc(C(=O)O)c(=O)c3ccccc32)cc1`, 18000 nM. On to `COc1ccc(-c2ccc(Cn3cc(C(=O)O)c(=O)c4cccc(F)c43)cc2)cn1`, for which the IP was 63 nM.

With `COc1ccc(Cn2cc(C(=O)O)c(=O)c3c(F)cccc32)cc1`, the IP was 2000 nM. Take `O=C(O)c1cn(Cc2cccc(OC(F)(F)F)c2)c2ccccc2c1=O`: the IP was determined as 4100 nM. For the compound `COc1cccc(Cn2cc(C(=O)O)c(=O)c3cccc(F)c32)c1`, the IP turned out to be 2700 nM. Still for that read-out and setting: for `CS(=O)(=O)c1ccc(Cn2cc(C(=O)O)c(=O)c3cccc(F)c32)cc1` the value was 13000 nM. Take `O=C(O)c1cn(Cc2ccc(Br)cc2F)c2c(F)cccc2c1=O`: the IP came to 1200 nM.

With `O=C(O)c1cn(Cc2ccc(C3CC3)cc2)c2c(F)cccc2c1=O`, the IP turned out to be 1200 nM.

As to `O=C(O)c1cn(Cc2ccc(OC(F)(F)F)cc2)c2cccc(F)c2c1=O`, the IP was 2800 nM. Regarding `O=C(O)c1cn(Cc2cccc(OC(F)(F)F)c2)c2c(F)cccc2c1=O`, the IP was 3600 nM. For `COc1cccc(Cn2cc(C(=O)O)c(=O)c3c(F)ccc(F)c32)c1`, the IP was 4200 nM. As to `O=C(O)c1cn(C2(c3ccccc3)CC2)c2ccccc2c1=O`, the IP stood at 13000 nM.

Turning to `O=C(O)c1cn(Cc2ccc(-c3ccccc3)cc2F)c2ccccc2c1=O`, the IP amounted to 50 nM. In the case of `O=C(O)c1cn(C2(c3ccccc3)CC2)c2c(F)cccc2c1=O`, the IP came to 22000 nM. For the compound `O=C(O)c1cn(Cc2c(F)cccc2F)c2cccc(F)c2c1=O`, the IP amounted to 1300 nM. Take `CN(C)Cc1cccc(-c2ccc(Cn3cc(C(=O)O)c(=O)c4cccc(F)c43)cc2)c1`: the IP turned out to be 220 nM. For the compound `O=C(O)c1cn(Cc2ccc(-c3ccccc3)cc2)c2c(F)ccc(F)c2c1=O`, the IP was 270 nM. On to `N#Cc1ccccc1-c1ccc(Cn2cc(C(=O)O)c(=O)c3c(F)cccc32)cc1`, for which the IP stood at 400 nM. Regarding `O=C(O)c1cn(Cc2ccc(C(F)(F)F)cc2)c2c(F)cccc2c1=O`, the IP stood at 980 nM. On the same count and under the same terms, in the case of `O=C(O)c1cn(Cc2cccc(C(F)(F)F)c2)c2ccccc2c1=O` it was 7200 nM; in that of `COc1cccc(Cn2cc(C(=O)O)c(=O)c3ccccc32)c1`, 2800 nM. As for `O=C(O)c1cn(Cc2ccc(OC(F)(F)F)cc2)c2ccccc2c1=O`, the IP was found to be 1800 nM. With `O=C(O)c1cn(CCc2ccccc2)c2ccccc2c1=O`, the IP is over 100000 nM. As to `N#Cc1ccccc1-c1ccc(Cn2cc(C(=O)O)c(=O)c3cccc(F)c32)cc1`, the IP was determined as 540 nM. In the case of `CN(C)c1cc(-c2ccc(Cn3cc(C(=O)O)c(=O)c4cccc(F)c43)cc2)ccn1`, the IP was determined as 45 nM.

On to `CN1CCN(c2ccc(-c3ccc(Cn4cc(C(=O)O)c(=O)c5cccc(F)c54)cc3)cn2)CC1`, for which the IP is 51 nM. Turning to `Nc1cccc(-c2ccc(Cn3cc(C(=O)O)c(=O)c4cccc(F)c43)cc2)c1`, the IP stood at 210 nM. Turning to `O=C(O)c1cn(Cc2ccccc2C(F)(F)F)c2c(F)cccc2c1=O`, the IP came to 6900 nM.

On to `O=C(O)c1cn(Cc2ccccc2)c2c(F)ccc(F)c2c1=O`, for which the IP was 3000 nM. As for `O=C(O)c1cn(CCc2ccccc2)c2c(F)cccc2c1=O`, the IP amounted to 24000 nM. In the case of `O=C(O)c1cn(Cc2ccc(-c3ccccc3)cc2)c2c(F)cccc2c1=O`, the IP was found to be 380 nM.

Take `COc1ncc(-c2ccc(Cn3cc(C(=O)O)c(=O)c4ccccc43)c(F)c2)cn1`: the IP came to 510 nM. On to `CS(=O)(=O)c1ccc(Cn2cc(C(=O)O)c(=O)c3c(F)ccc(F)c32)cc1`, for which the IP was determined as 16000 nM. On to `NC(=O)c1cccc(Cn2cc(C(=O)O)c(=O)c3ccccc32)c1`, for which the IP stood at 4300 nM. For `O=C(O)c1cn(Cc2cccc(OC(F)(F)F)c2)c2cccc(F)c2c1=O`, the IP worked out at 5900 nM. Same read-out and setting: for `O=C(O)c1cn(Cc2ccc(-c3ccncc3)cc2)c2c(F)cccc2c1=O` the value was 100 nM.

With `Cn1cc(-c2ccc(Cn3cc(C(=O)O)c(=O)c4ccccc43)c(F)c2)cn1`, the IP came to 37 nM. The same measure, in the same setting: for `O=C(O)c1cn(Cc2ccc(-c3ccccc3)cc2)c2cccc(F)c2c1=O` the value was 84 nM; for `O=C(O)c1cn(Cc2ccccc2C(F)(F)F)c2ccccc2c1=O`, 4300 nM.

`O=C(O)c1cn(Cc2ccc(-c3cccnc3)cc2)c2cccc(F)c2c1=O`: the IP came out at 61 nM. As for `O=C(O)c1cn(Cc2ccc(C(F)(F)F)cc2)c2cccc(F)c2c1=O`, the IP came to 1500 nM. For the compound `O=C(O)c1cn(Cc2ccc(-c3cccc4cccnc34)cc2)c2cccc(F)c2c1=O`, the IP turned out to be 190 nM. `O=C(O)c1cn(Cc2ccc(OC(F)(F)F)cc2)c2c(F)cccc2c1=O`: the IP came out at 2100 nM. For `Nc1ccc(-c2ccc(Cn3cc(C(=O)O)c(=O)c4cccc(F)c43)cc2)cn1`, the IP is 130 nM. In the case of `O=C(O)c1cn(Cc2ccc(Br)cc2F)c2cccc(F)c2c1=O`, the IP is 1100 nM. On the same count and under the same terms, in the case of `O=C(NC1CC1)c1ccc(-c2ccc(Cn3cc(C(=O)O)c(=O)c4cccc(F)c43)cc2)cc1` it was 110 nM; in that of `O=C(O)c1cn(Cc2ccc(Br)cc2F)c2c(F)ccc(F)c2c1=O`, 860 nM; in that of `O=C(NCCO)c1cccc(-c2ccc(Cn3cc(C(=O)O)c(=O)c4cccc(F)c43)cc2)c1`, 99 nM. For `O=C(O)c1cn(Cc2cccc(C(F)(F)F)c2)c2c(F)ccc(F)c2c1=O`, the IP came to 1600 nM. Take `O=C(O)c1cn(Cc2ccc(OC(F)(F)F)cc2)c2c(F)ccc(F)c2c1=O`: the IP amounted to 1300 nM. For `CNc1ccc(-c2ccc(Cn3cc(C(=O)O)c(=O)c4cccc(F)c43)cc2)cn1`, the IP came out at 48 nM. On the same count and under the same terms, for `O=C(O)c1cn(Cc2c(F)cccc2F)c2c(F)cccc2c1=O` the value was 1000 nM; for `O=C(O)c1cn(Cc2c(F)cccc2F)c2c(F)ccc(F)c2c1=O`, 610 nM.

Consider `COc1ccc(Cn2cc(C(=O)O)c(=O)c3cccc(F)c32)cc1`, for which the IP was 1100 nM.

As to `O=C(O)c1cn(Cc2ccc(-c3cncnc3)cc2)c2c(F)cccc2c1=O`, the IP stood at 830 nM. The same measure, in the same setting: for `NC(=O)c1cccc(Cn2cc(C(=O)O)c(=O)c3cccc(F)c32)c1` the value was 3400 nM.

Regarding `O=C(O)c1cn(Cc2ccc(-c3ccccc3)cc2)c2ccccc2c1=O`, the IP was 210 nM.

Turning to `COc1cccc(Cn2cc(C(=O)O)c(=O)c3c(F)cccc32)c1`, the IP stood at 2100 nM.

System in another series: not listed separately
Put plainly: Plasma protein binding in human serum by equilibrium dialysis method.
As to `O=C(O)c1cn(Cc2ccc(-c3cccc(CO)n3)cc2)c2c(F)cccc2c1=O`, the free fraction (fraction unbound) is 0.058. As to `O=C(O)c1cn(Cc2ccc(-c3cn[nH]c3)cc2F)c2cccc(F)c2c1=O`, the unbound share (fraction unbound) was 0.044. Compound `O=C(O)c1cn(Cc2ccc(-c3cccnc3)cc2)c2cccc(F)c2c1=O` had a fraction unbound of 0.055.

System in another series: not listed separately
The series can be described thus: Plasma protein binding in rat serum by equilibrium dialysis method.
In turn, `O=C(O)c1cn(Cc2ccc(-c3cccc(CO)n3)cc2)c2c(F)cccc2c1=O` had a fraction unbound of 0.022. For the compound `O=C(O)c1cn(Cc2ccc(-c3cn[nH]c3)cc2F)c2cccc(F)c2c1=O`, the fraction unbound was 0.02. For the compound `O=C(O)c1cn(Cc2ccc(-c3cccnc3)cc2)c2cccc(F)c2c1=O`, the fraction unbound was 0.051. For the compound `O=C(O)c1cn(Cc2ccc(-c3cccc4cccnc34)cc2)c2cccc(F)c2c1=O`, the unbound share (fraction unbound) is 0.015.

System in another series: not listed separately
The series can be described thus: Drug level in rat cerebrospinal fluid at 10 mg/kg, po after 1 hr.
Regarding `O=C(O)c1cn(Cc2ccc(-c3cccnc3)cc2)c2cccc(F)c2c1=O`, the concentration at 1 h was 24 nM.

For the origin of these results see ChEMBL document CHEMBL1153216, “Parallel synthesis of N-biaryl quinolone carboxylic acids as selective M(1) positive allosteric modulators” (Bioorg Med Chem Lett, 2010).
